From ChEMBL document CHEMBL4619786, “Discovery of Novel Resorcinol Dibenzyl Ethers Targeting the Programmed Cell Death-1/Programmed Cell Death-Ligand 1 Interaction as Potential Anticancer Agents” (J Med Chem, 2020)

test system: B16-F10; assay: Cytotoxicity against mouse B16/F10 cells assessed as reduction in cell viability measured after 48 hrs by MTT assay; format: functional, cell-based; settings: B16-F10, 48 h

SMILES | IC50 [nM]
Cc1c(COc2cc(OCc3cccc(C#N)c3)c(CN[C@H](CO)C(=O)O)cc2Cl)cccc1-c1ccccc1 | > 10000

biological target: Programmed cell death protein 1/Programmed cell death 1 ligand 1 (Homo sapiens, UniProt Q9NZQ7); assay: Inhibition of human PD1/PDL1 protein-protein interaction by HTRF assay; format: protein-complex assay; settings: not given
Sequence (Q15116 whole entry): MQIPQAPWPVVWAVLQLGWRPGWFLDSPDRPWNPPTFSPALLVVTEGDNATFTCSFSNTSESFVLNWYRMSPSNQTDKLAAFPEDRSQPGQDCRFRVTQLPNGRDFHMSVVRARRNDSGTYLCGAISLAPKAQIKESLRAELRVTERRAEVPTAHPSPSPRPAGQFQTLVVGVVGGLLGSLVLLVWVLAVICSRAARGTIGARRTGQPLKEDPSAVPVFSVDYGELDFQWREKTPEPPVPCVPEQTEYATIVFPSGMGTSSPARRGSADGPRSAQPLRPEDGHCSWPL
Sequence (Q9NZQ7 whole entry): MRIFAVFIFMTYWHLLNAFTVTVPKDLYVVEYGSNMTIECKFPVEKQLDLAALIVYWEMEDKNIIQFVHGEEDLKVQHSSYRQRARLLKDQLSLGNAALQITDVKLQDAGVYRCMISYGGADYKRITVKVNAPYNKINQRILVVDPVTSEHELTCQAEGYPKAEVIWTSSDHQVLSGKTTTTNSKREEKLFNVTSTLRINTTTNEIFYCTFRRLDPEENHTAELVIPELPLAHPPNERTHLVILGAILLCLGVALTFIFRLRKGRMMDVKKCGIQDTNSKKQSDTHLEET

SMILES | IC50 [nM]
CC(=O)N1CCN(Cc2ccc3oc(-c4cccc(-c5ccccc5)c4F)cc(=O)c3c2)CC1 | > 10000
Cc1c(COc2cc(OCc3cccc(C#N)c3)c(CN3C[C@H](O)[C@@H](F)C3)cc2Cl)cccc1-c1ccc2c(c1)OCCO2 | > 100
Cc1c(COc2cc(OCc3cccc(C#N)c3)c(CN[C@H](C(=O)O)[C@@H](C)O)cc2Cl)cccc1-c1ccccc1 | 9
Cc1c(COc2cc(OCc3cccc(C#N)c3)c(CN3CC(C(=O)O)C3)cc2Cl)cccc1-c1ccccc1 | 31.2
Cc1c(COc2cc(OCc3cccc(C#N)c3)c(/C=N/C(CS)C(=O)O)cc2Cl)cccc1-c1ccccc1 (stereo unspecified) | > 100
Cc1c(COc2cc(OCc3cccc(C#N)c3)c(CNCCN)cc2Cl)cccc1-c1ccc2c(c1)OCCO2 | > 100
Cc1c(COc2cc(OCc3cccc(C#N)c3)c(CN3CC(O)C3)cc2Cl)cccc1-c1ccccc1 | > 100
Cc1c(COc2cc(OCc3cccc(C#N)c3)c(CN3CC[C@@H](O)C3)cc2Cl)cccc1-c1ccc2c(c1)OCCO2 | 14.9
Cc1c(COc2cc(OCc3cccc(C#N)c3)c(CNCCN(C)C)cc2Cl)cccc1-c1ccccc1 | 10 to 100
CC(=O)N1CCN(Cc2ccc(O)c(C(=O)/C=C/c3cccc(-c4ccc5c(c4)OCCO5)c3C)c2)CC1 | > 20000
CC(=O)N1CCN(Cc2ccc(O)c(C(=O)/C=C/c3cccc(-c4ccccc4)c3F)c2)CC1 | > 20000
Cc1c(COc2cc(OCc3cccc(C#N)c3)c(CN3CCN(C)CC3)cc2Cl)cccc1-c1ccc2c(c1)OCCO2 | 225
Cc1c(COc2cc(OCc3cccc(C#N)c3)c(CNCC(=O)O)cc2Cl)cccc1-c1ccccc1 | 10 to 100
Cc1c(COc2cc(OCc3cccc(C#N)c3)c(CN[C@H](CO)C(=O)O)cc2Cl)cccc1-c1ccccc1 | 8
Cc1c(COc2cc(OCc3cccc(C#N)c3)c(CNCC(=O)O)cc2Cl)cccc1-c1ccc2c(c1)OCCO2 | > 100
Cc1c(COc2cc(OCc3cccc(C#N)c3)c(CN3CC[C@@H](C(=O)O)C3)cc2Cl)cccc1-c1ccccc1 | 10 to 100
Cc1c(COc2cc(OCc3cccc(C#N)c3)c(CNC(C)(C)C(=O)O)cc2Cl)cccc1-c1ccc2c(c1)OCCO2 | 25.2
Cc1c(COc2ccc3cc(CNC(C)(C)C(=O)O)ccc3c2)cccc1-c1ccc2c(c1)OCCO2 | > 10000
Cc1c(COc2cc(OCc3cccc(C#N)c3)c(CN3CC[C@@H](C(=O)O)C3)cc2Cl)cccc1-c1ccc2c(c1)OCCO2 | 15.2
CC(=O)N1CCN(Cc2cc(Cl)c(OCc3cccc(-c4ccc5c(c4)OCCO5)c3C)cc2OCc2cccc(C#N)c2)CC1 | 408
Cc1c(COc2cc(OCc3cccc(C#N)c3)c(CN[C@H](C(=O)O)[C@H](C)O)cc2Cl)cccc1-c1ccccc1 | 14.1
Cc1c(COc2cc(OCc3cccc(C#N)c3)c(CN[C@@H](CO)C(=O)O)cc2Cl)cccc1-c1ccncc1 | > 100
Cc1c(COc2cc(OCc3cccc(C#N)c3)c(CN3CC(C)(O)C3)cc2Cl)cccc1-c1ccccc1 | > 100
CCN1CCN(Cc2ccc(O)c(C(=O)/C=C/c3cccc(-c4ccccc4)c3C)c2)CC1 | 14600
Cc1c(/C=C/C(=O)c2cc(CN3CCN(c4cccc([N+](=O)[O-])c4)CC3)ccc2O)cccc1-c1ccc2c(c1)OCCO2 | 19300
CC(=O)N1CCN(Cc2ccc3oc(-c4cccc(-c5ccc6c(c5)OCCO6)c4C)cc(=O)c3c2)CC1 | > 10000

SMILES | IC50 [nM]
Cc1c(COc2cc(OCc3cccc(C#N)c3)c(CN3CC(O)C3)cc2Cl)cccc1-c1ccc2c(c1)OCCO2 | 30.4
Cc1c(COc2ccc3cc(CNCCN)ccc3c2)cccc1-c1ccccc1 | > 10000
Cc1c(COc2cc(OCc3cccc(C#N)c3)c(CN3CC[C@@H](O)C3)cc2Cl)cccc1-c1ccccc1 | 10 to 100
Cc1c(COc2cc(OCc3cccc(C#N)c3)c(CN3CCN(C4CC4)CC3)cc2Cl)cccc1-c1ccc2c(c1)OCCO2 | 409
Cc1c(-c2ccccc2)cccc1-c1cc(=O)c2cc(CN3CCN(CC4CC4)CC3)ccc2o1 | > 10000
Cc1c(COc2cc(OCc3cccc(C#N)c3)c(CN3CCC(O)C3)cc2Cl)cccc1-c1ccccc1 (stereo unspecified) | 10 to 100
Cc1c(COc2cc(OCc3cccc(C#N)c3)c(CN3CC[C@H](C(=O)O)C3)cc2Cl)cccc1-c1ccccc1 | 10 to 100
COc1cc2c(c(O)c1CC=C(C)C)C(=O)C[C@@H](c1ccc(O)cc1)O2 | 96600
Cc1c(COc2cc(OCc3cccc(C#N)c3)c(CNCCN(C)C)cc2Cl)cccc1-c1ccc2c(c1)OCCO2 | 26.3
Cc1c(COc2cc(OCc3cccc(C#N)c3)c(CN3CCCC[C@H]3C(=O)O)cc2Cl)cccc1-c1cncnc1 | > 100
Cc1c(COc2ccc3cc(CN4C[C@@H](O)C[C@H]4C(=O)O)ccc3c2)cccc1-c1ccccc1 | > 10000
Cc1c(COc2ccc3cc(CN4C[C@@H](O)C[C@H]4C(=O)O)ccc3c2)cccc1-c1ccc2c(c1)OCCO2 | > 10000
Cc1c(COc2cc(OCc3cccc(C#N)c3)c(CN3CCCCC3C(=O)O)cc2Cl)cccc1-c1ccncc1 (stereo unspecified) | > 100
CC(=O)NCCNCc1ccc(O)c(C(=O)/C=C/c2cccc(-c3ccccc3)c2C)c1 | 5300
Cc1c(COc2cc(OCc3cccc(C#N)c3)c(CNCCNC(=O)OC(C)(C)C)cc2Cl)cccc1-c1ccc2c(c1)OCCO2 | 55.9
Cc1c(COc2cc(OCc3cccc(C#N)c3)c(CNCCO)cc2Cl)cccc1-c1ccncc1 | > 100
Cc1c(COc2cc(OCc3cccc(C#N)c3)c(CN3C[C@@H](O)C[C@H]3C(=O)O)cc2Cl)cccc1-c1ccncc1 | > 100
Cc1c(COc2cc(OCc3cccc(C#N)c3)c(CN3C[C@@H](O)C[C@H]3C(=O)O)cc2Cl)cccc1-c1cccnc1 | > 100
Cc1c(COc2cc(OCc3cccc(C#N)c3)c(CN3CCCC[C@H]3C(=O)O)cc2Cl)cccc1-c1ccncc1 | > 100
Cc1c(COc2cc(OCc3cccc(C#N)c3)c(CN3C[C@H](O)[C@@H](F)C3)cc2Cl)cccc1-c1ccccc1 | > 100
Cc1c(/C=C/C(=O)c2cc(CN3CCNCC3)ccc2O)cccc1-c1ccccc1 | > 20000
Cc1c(COc2cc(OCc3cccc(C#N)c3)c(CN[C@H](CO)C(=O)O)cc2Cl)cccc1-c1cccnc1 | 10 to 100
Cc1c(COc2cc(OCc3cccc(C#N)c3)c(CN3CCCC[C@H]3C(=O)O)cc2Cl)cccc1-c1cccnc1 | > 100
Cc1c(COc2cc(OCc3cccc(C#N)c3)c(CN3CCNCC3)cc2Cl)cccc1-c1ccc2c(c1)OCCO2 | 233
Cc1c(COc2cc(OCc3cccc(C#N)c3)c(CN3C[C@@H](O)C[C@@H]3CO)cc2Cl)cccc1-c1ccccc1 | 10 to 100
Cc1c(COc2cc(OCc3cccc(C#N)c3)c(CN3CC(O)C(CO)C3)cc2Cl)cccc1-c1ccc2c(c1)OCCO2 (stereo unspecified) | 16.7

SMILES | IC50 [nM]
Cc1c(COc2cc(OCc3cccc(C#N)c3)c(CN[C@@H](C(=O)O)[C@H](C)O)cc2Cl)cccc1-c1ccccc1 | 8.5
Cc1c(COc2cc(OCc3cccc(C#N)c3)c(CN3CC[C@H](O)C3)cc2Cl)cccc1-c1ccccc1 | 10 to 100
CC(=O)NCCNCc1ccc2cc(OCc3cccc(-c4ccccc4)c3C)ccc2c1 | > 10000
CC(=O)N1CCN(Cc2ccc(O)c(C(=O)/C=C/c3cccc(-c4ccccc4)c3)c2)CC1 | > 20000
CCN1CCN(Cc2cc(Cl)c(OCc3cccc(-c4ccc5c(c4)OCCO5)c3C)cc2OCc2cccc(C#N)c2)CC1 | 711
Cc1c(COc2cc(OCc3cccc(C#N)c3)c(CN[C@@H](C(=O)O)[C@H](C)O)cc2Cl)cccc1-c1ccncc1 | > 100
Cc1c(COc2cc(OCc3cccc(C#N)c3)c(CN3CC(C(=O)O)C3)cc2Cl)cccc1-c1ccc2c(c1)OCCO2 | 14.5
Cc1c(-c2ccccc2)cccc1-c1cc(=O)c2cc(CN3CCNCC3)ccc2o1 | > 10000
Cc1c(COc2cc(OCc3cccc(C#N)c3)c(CN3CC(C)(O)C3)cc2Cl)cccc1-c1ccc2c(c1)OCCO2 | 10 to 100
c1cc2c(cc1[C@H]1OC[C@H]3[C@@H]1CO[C@@H]3c1ccc3c(c1)OCO3)OCO2 [SESAMIN] | > 100000
Cc1c(/C=C/C(=O)c2cc(CN3CCN(C4CC4)CC3)ccc2O)cccc1-c1ccccc1 | > 20000
Cc1c(COc2cc(OCc3cccc(C#N)c3)c(CN3CCN(CC4CC4)CC3)cc2Cl)cccc1-c1ccc2c(c1)OCCO2 | > 1000
CCN1CCN(Cc2ccc3oc(-c4cccc(-c5ccccc5)c4C)cc(=O)c3c2)CC1 | > 10000
CC(=O)N1CCN(Cc2ccc3oc(-c4cccc(-c5ccccc5)c4C)cc(=O)c3c2)CC1 | > 10000
Cc1c(COc2cc(OCc3cccc(C#N)c3)c(CN3CCCC[C@@H]3C(=O)O)cc2Cl)cccc1-c1ccncc1 | > 100
Cc1c(COc2cc(OCc3cccc(C#N)c3)c(CN3CCN(C(=O)OC(C)(C)C)CC3)cc2Cl)cccc1-c1ccc2c(c1)OCCO2 | > 1000
Cc1c(COc2cc(OCc3cccc(C#N)c3)c(CN3C[C@@H](O)C[C@H]3C(=O)O)cc2Cl)cccc1-c1cncnc1 | > 100
Cc1c(COc2cc(OCc3cccc(C#N)c3)c(CNC(C)(C)C(=O)O)cc2Cl)cccc1-c1cccnc1 | 10 to 100
CC(=O)N1CCN(Cc2ccc(O)c(C(=O)/C=C/c3cccc(-c4ccccc4)c3C)c2)CC1 | 14400
Cc1c(COc2cc(OCc3cccc(C#N)c3)c(CN3CCN(C(C)C)CC3)cc2Cl)cccc1-c1ccc2c(c1)OCCO2 | > 1000
O=c1cc(-c2ccc(O)cc2)oc2cc(O[C@@H]3O[C@H](CO)[C@@H](O)[C@H](O)[C@H]3O[C@@H]3OC[C@](O)(CO)[C@H]3O)cc(O)c12 [APIIN] | > 100000
Cc1c(COc2ccc3cc(CNC(C)(C)C(=O)O)ccc3c2)cccc1-c1ccccc1 | > 10000
CC(=O)N1CCN(Cc2ccc3oc(-c4cccc(-c5ccccc5)c4)cc(=O)c3c2)CC1 | > 10000
Cc1c(COc2ccc3cc(CN[C@@H](CO)C(=O)O)ccc3c2)cccc1-c1ccc2c(c1)OCCO2 | > 10000
Cc1c(COc2cc(OCc3cccc(C#N)c3)c(CN3CC[C@H](O)C3)cc2Cl)cccc1-c1ccc2c(c1)OCCO2 | 27.5
Cc1c(COc2cc(OCc3cccc(C#N)c3)c(CN[C@H](CO)C(=O)O)cc2Cl)cccc1-c1ccncc1 | > 100

test system: A549; assay: Cytotoxicity against human A549 cells assessed as reduction in cell viability measured after 48 hrs by MTT assay; format: functional, cell-based; settings: A549, 48 h

SMILES | IC50 [nM]
Cc1c(COc2cc(OCc3cccc(C#N)c3)c(CN[C@H](CO)C(=O)O)cc2Cl)cccc1-c1ccccc1 | > 10000

test system: MCF7; assay: Cytotoxicity against human MCF7 cells assessed as reduction in cell viability measured after 48 hrs by MTT assay; format: functional, cell-based; settings: MCF7, 48 h

SMILES | IC50 [nM]
Cc1c(COc2cc(OCc3cccc(C#N)c3)c(CN[C@H](CO)C(=O)O)cc2Cl)cccc1-c1ccccc1 | > 10000
